Columns and labels:
Rattus norvegicus [1] = species on record: Rattus norvegicus; assay: Selectivity ratio of EC50 for DAT in rat synaptosomes to EC50 for SERT in rat synaptosomes; assay type: subcellular
[2] = Activity at NET in rat synaptosomes obtained from whole brain minus striatum and cerebellum assessed as release of [3H]MPP+ by liquid scintillation counting method; assay type: subcellular
Rattus norvegicus [3] = species on record: Rattus norvegicus; assay: Selectivity ratio of EC50 for NET in rat synaptosomes to EC50 for SERT in rat synaptosomes; assay type: subcellular
Rattus norvegicus [4] = species on record: Rattus norvegicus; assay: Selectivity ratio of EC50 for DAT in rat synaptosomes to EC50 for NET in rat synaptosomes; assay type: subcellular
[5] = molecular target: Sodium-dependent serotonin transporter (Rattus norvegicus, UniProt P31652); assay: Activity at SERT in rat synaptosomes obtained from whole brain minus striatum and cerebellum assessed as release of [3H]5-HT by liquid scintillation counting method; assay type: subcellular
Sequence of Sodium-dependent serotonin transporter (P31652 whole entry): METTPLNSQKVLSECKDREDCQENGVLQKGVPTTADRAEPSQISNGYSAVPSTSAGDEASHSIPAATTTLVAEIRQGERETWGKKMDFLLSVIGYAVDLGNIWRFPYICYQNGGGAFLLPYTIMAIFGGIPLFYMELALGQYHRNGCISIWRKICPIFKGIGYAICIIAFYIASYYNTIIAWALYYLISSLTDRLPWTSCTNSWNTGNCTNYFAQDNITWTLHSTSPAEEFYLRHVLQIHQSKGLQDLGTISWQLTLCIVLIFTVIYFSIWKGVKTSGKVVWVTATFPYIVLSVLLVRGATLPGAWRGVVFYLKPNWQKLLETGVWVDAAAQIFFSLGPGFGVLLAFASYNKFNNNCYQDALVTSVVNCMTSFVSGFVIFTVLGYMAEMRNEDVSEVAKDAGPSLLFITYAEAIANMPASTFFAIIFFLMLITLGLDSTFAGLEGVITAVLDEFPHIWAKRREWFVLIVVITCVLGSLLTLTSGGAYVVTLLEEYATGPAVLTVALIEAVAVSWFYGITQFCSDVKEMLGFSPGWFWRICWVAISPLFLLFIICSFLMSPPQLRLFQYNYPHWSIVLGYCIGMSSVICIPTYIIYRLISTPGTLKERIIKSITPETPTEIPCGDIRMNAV

[6] = molecular target: T1, 5-hydroxytryptamine receptor 2A (Homo sapiens, UniProt P28223); assay: Agonist activity at human 5-HT2A receptor expressed in HEK293 cells assessed as induction of calcium mobilization incubated for 15 mins by calcium 5 dye-based fluorescence assay; assay type: cell-based
T1 sequence (P28223 whole entry): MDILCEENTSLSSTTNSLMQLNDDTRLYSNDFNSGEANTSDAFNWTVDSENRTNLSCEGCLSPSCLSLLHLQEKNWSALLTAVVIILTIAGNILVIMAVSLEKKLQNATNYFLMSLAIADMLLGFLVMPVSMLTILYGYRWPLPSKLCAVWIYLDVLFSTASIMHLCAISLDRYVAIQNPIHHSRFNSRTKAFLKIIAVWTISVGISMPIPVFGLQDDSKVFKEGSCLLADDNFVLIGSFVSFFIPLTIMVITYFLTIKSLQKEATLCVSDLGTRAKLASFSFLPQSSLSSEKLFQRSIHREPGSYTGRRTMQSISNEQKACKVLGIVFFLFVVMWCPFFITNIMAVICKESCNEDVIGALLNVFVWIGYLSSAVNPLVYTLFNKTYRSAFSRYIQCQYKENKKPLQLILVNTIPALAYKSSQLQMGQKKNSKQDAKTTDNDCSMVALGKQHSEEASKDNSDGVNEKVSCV

[7] = molecular target: T2, 5-hydroxytryptamine receptor 2C (Homo sapiens, UniProt P28335); assay: Agonist activity at human 5-HT2C receptor expressed in HEK293 cells assessed as induction of calcium mobilization incubated for 15 mins by calcium 5 dye-based fluorescence assay; assay type: functional, cell-based
T2 sequence (P28335 whole entry): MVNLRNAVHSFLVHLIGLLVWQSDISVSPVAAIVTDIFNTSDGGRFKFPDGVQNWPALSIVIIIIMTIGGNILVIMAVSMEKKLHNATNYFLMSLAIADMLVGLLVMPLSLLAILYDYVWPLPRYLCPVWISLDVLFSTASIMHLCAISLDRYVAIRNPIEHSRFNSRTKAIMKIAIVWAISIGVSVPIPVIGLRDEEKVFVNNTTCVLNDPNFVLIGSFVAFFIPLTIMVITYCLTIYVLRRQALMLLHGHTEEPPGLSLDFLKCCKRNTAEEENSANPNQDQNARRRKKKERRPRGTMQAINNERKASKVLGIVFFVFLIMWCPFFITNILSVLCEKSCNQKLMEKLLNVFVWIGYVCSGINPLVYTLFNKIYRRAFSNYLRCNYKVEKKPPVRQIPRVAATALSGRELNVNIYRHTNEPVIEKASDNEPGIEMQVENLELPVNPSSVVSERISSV

Rattus norvegicus [8] = species on record: Rattus norvegicus; assay: Selectivity ratio of EC50 for NET in rat synaptosomes to EC50 for DAT in rat synaptosomes; assay type: subcellular
[9] = molecular target: T1, 5-hydroxytryptamine receptor 2A; assay: Agonist activity at human 5-HT2A receptor expressed in HEK293 cells by [3H]-inositol phosphate accumulation assay; assay type: cell-based
[10] = molecular target: T3, 5-hydroxytryptamine receptor 2C (Homo sapiens) (UniProt P28335); assay: Agonist activity at human 5-HT2C receptor expressed in HEK293 cells by [3H]-inositol phosphate accumulation assay relative to 5-HT; assay type: functional, cell-based
T3 sequence (whole entry): T2 sequence (P28335 whole entry)

[11] = molecular target: T2, 5-hydroxytryptamine receptor 2C; assay: Agonist activity at human 5-HT2C receptor expressed in HEK293 cells by [3H]-inositol phosphate accumulation assay; assay type: functional, cell-based
[12] = molecular target: 5-hydroxytryptamine receptor 2B (Homo sapiens, UniProt P41595); assay: Agonist activity at human 5-HT2B receptor expressed in HEK293 cells by [3H]-inositol phosphate accumulation assay; assay type: cell-based
Sequence of 5-hydroxytryptamine receptor 2B (P41595 whole entry): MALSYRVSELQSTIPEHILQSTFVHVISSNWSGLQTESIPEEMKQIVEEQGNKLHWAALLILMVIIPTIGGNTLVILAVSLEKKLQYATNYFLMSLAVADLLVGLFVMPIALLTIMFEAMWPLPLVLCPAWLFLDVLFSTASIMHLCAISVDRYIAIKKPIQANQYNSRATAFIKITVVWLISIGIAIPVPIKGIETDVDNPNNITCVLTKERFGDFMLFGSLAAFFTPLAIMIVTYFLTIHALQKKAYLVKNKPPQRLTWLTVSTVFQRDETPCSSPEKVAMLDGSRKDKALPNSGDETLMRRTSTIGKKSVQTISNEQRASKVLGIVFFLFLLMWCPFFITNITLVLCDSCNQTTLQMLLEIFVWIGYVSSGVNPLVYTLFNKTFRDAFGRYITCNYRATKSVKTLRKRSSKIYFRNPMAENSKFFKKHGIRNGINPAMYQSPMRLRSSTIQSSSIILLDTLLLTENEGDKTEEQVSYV

Structure (SMILES)	Ratio EC50 (Rattus norvegicus [1])	EC50 [2] [nM]	also measured
C[C@H](N)C/C=C/c1ccccc1	5	138	Ratio EC50 (Rattus norvegicus [3]): 3.5
CC(N)/C=C/c1ccccc1 (stereo not drawn)		308	Ratio EC50 (Rattus norvegicus [4]): 2.2; EC50 [5]: > 10 µM
C[C@@H](N)CC#Cc1ccccc1	2.3	496	EC50 [6]: > 10 µM
CC(N)/C=C\c1ccccc1 (stereo not drawn)		301	Ratio EC50 (Rattus norvegicus [4]): 3.7; EC50 [5]: > 10 µM
C[C@H](N)CC#Cc1ccccc1		784	
CC(N)C/C=C\c1ccccc1 (racemic)	1.4	621	
C[C@H](N)C/C=C\c1ccccc1		170	EC50 [7]: > 10 µM; EC50 [5]: 0.663 µM
C[C@@H](N)C/C=C\c1ccccc1	1.2	211	Ratio EC50 (Rattus norvegicus [4]): 6.7
CC(N)C/C=C/c1ccccc1 (racemic)	5	239	
CC(N)CC#Cc1ccccc1 (racemic)	2.6	2980	Ratio EC50 (Rattus norvegicus [8]): 3
CC(N)Cc1ccc2ccccc2c1 (stereo not drawn)			EC50 [9]: 466 nM; Emax [10]: 20%; EC50 [11]: 2.3 nM; EC50 [12]: 40 nM
C[C@@H](N)C/C=C/c1ccccc1	5	279	EC50 [6]: > 10 µM

From ChEMBL document CHEMBL3853267 (Medchemcomm, 2016)
